For data set [1], the target named is talin-1 head domain (THD) (UniProt P26039). The data set is described as follows: Microscale thermophoresis (MST) affinity measurement. The following applies: 200 nM Atto488-labeled β1-tail peptide, 20 mM Tris pH 7.5, 200 mM NaCl, 1 mM TCEP, 0.05% Tween-20. It counts as binding. As for the experimental part:
All MST measurements were performed on a Monolith NT.115 red-blue (Nanotemper) using premium-coated capillaries to reduce non-specific interaction of the proteins with the glass surface. Both interaction partners (ligand and receptor) were transferred into MST buffer (20 mM Tris, pH 7.5, 200 mM sodium chloride, 1 mM tris(2-carboxyethyl)phosphine [TCEP], 0.05% Tween-20) to avoid artifacts derived from buffer mismatches. […] The measurements were carried out at 20% light emitting diode power and 20% and 40% MST power. Data were analyzed using the MO Affinity Analysis Software (Nanotemper).

Data set [2] concerns the target T1, kindlin-2 (Homo sapiens, UniProt Q96AC1).
T1 sequence (Q96AC1 1-680): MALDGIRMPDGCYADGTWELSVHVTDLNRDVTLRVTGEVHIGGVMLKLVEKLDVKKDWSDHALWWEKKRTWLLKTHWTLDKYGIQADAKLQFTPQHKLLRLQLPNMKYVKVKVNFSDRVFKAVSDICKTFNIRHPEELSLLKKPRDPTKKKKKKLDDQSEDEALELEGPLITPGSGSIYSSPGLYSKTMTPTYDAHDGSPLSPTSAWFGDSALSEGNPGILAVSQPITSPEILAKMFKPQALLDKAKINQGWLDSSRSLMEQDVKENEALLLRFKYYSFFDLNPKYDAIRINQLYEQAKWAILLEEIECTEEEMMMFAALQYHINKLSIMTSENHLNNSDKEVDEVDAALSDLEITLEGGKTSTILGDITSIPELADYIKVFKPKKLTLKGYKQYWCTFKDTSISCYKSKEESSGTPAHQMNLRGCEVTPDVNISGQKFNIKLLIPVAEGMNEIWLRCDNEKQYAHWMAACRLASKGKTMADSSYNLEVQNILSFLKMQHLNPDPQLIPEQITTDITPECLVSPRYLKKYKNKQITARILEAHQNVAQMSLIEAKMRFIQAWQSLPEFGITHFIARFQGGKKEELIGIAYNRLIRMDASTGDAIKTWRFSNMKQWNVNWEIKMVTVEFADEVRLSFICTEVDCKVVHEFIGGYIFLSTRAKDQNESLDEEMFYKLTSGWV
The description is as above. It counts as binding.

The test system of data set [3] is recombinant kindlin-2. In words: Streptavidin-bead peptide pull-down with recombinant protein. It counts as binding. The following applies: N-terminally desthio biotinylated peptide on streptavidin beads; kindlin-2 2.5 nM; THD absent or present; 2 h at 4°C; Western blot. How it is done: (§1) Before use, peptides were immobilized on 25 μl Dynabeads MyOne Streptavidin C1 (10 mg/ml; Invitrogen) in Mammalian Protein Extraction Reagent (Thermo Fisher Scientific) containing protease inhibitors (cOmplete; Roche) and phosphatase inhibitors (Phosphatase Inhibitor Cocktail 2 and 3; Sigma-Aldrich) for 3 h at 4°C. Cell lysates were prepared with MPER containing protease and phosphatase inhibitors and 0.5 mg of supernatant was incubated with the peptide-coated beads at 4°C under constant rotation. For pull-downs with recombinant proteins, synthetic β1 integrin tail peptides were immobilized on 25 μl Dynabeads MyOne Streptavidin C1 (10 mg/ml; Invitrogen) for 3 h at 4°C, incubated with 2% BSA in Mammalian Protein Extraction Reagent (Thermo Scientific Scientific) for 30 min at 4°C to block unspecific binding before adding kindlin-2 or THD (conc 2.5 and 8.5 nM, respectively) and further incubation on a rotator for 2 h at 4°C. After washing the beads three times with lysis buffer, the proteins bound to the beads were eluted using Laemmli buffer, separated on a 10% SDS–PAGE, and analyzed by Western blotting.
(In general: A western blot detects proteins with antibodies after separation by electrophoresis.)

For data set [4], the system named is endogenous SNX17. The data set is described as follows: Peptide pull-down from whole cell lysate, Western blot. In kind it is binding. As for the experimental part:
as §1

Data set [5] deals with endogenous kindlin-2. The description is as above. In kind it is binding. As for the experimental part: as §1
Data set [6] in a line: Mass spectrometry-based measurement of the peptide's phosphorylation state after incubation in whole cell lysates. It counts as in vitro ADME. The following applies: whole cell lysate in MPER with protease and phosphatase inhibitors, 4°C; read-out mass spectrometry.
Data set [7] concerns anti-β1-pTpT integrin antibody (Abcam). In words: Integrin peptide ELISA (direct ELISA, immobilized tail peptides). In kind it is binding. The note with it: antibody dilution range 1:500 to 1:10,000 (Fig 1E). How it is done:
(§2) The plates were blocked with 200 μl PBS containing 3% BSA for 1 h at room temperature and then washed thrice with 200 μl PBS. Different dilutions of the anti–β1-pTpT antibodies (Thermo Fisher Scientific and Abcam) in 100 μl PBS supplemented with 3% BSA were incubated for 2 h at room temperature. After washing thrice with 200 μl PBS, 100 μl of anti-rabbit-IgG HRP-conjugate was added (1:10,000 in PBS supplemented with 3% BS) and incubated for 1 h at room temperature. The plates were washed thrice with 200 μl PBS, developed with 100 μl of ABTS substrate solution (1-Step ABTS; Thermo Fisher Scientific) before measuring absorbance at λ = 405 nm in a SpectraMax ABS Plus plate reader (Molecular Devices).
(In general: In an ELISA, binding on a coated surface is turned into a signal by an enzyme label.)

In data set [8] the test system is anti-β1-pTpT integrin antibody (Thermo Fisher Scientific). The description is as above. It counts as binding. The following applies: antibody dilution range 1:500 to 1:10,000 (Fig 1D). As for the experimental part:
as §2

Data set [9] deals with β1-pTpT peptide, N-terminally desthiobiotinylated. In words: pull-down; desthiobiotinylated β1-tail peptides on Dynabeads MyOne Streptavidin C1; 0.5 mg whole cell lysate in MPER with protease and phosphatase inhibitors, 4°C; Western blot and densitometry.
In data set [10] the target is SNX17 (UniProt Q8BVL3). In words: biotinylated peptide pull-down from cell lysate. The following applies: reference: β1-WT tail peptide; sites T788,T789.
Data set [11] addresses kindlin-2 (UniProt Q8CIB5). The data set is described as follows: biotinylated peptide pull-down from cell lysate. The following applies: reference: β1-WT tail peptide; sites T788,T789.
Data set [12] concerns the target kindlin-2 (UniProt Q8CIB5). In words: microscale thermophoresis, Atto488-labeled peptides. The following applies: reference: β1-WT tail peptide; sites T788,T789. (In MST a laser heats a spot of the sample, and binding alters the fluorescence response.)
Data set [13] addresses talin-1 head domain (THD) head domain (UniProt P26039). The data set is described as above. The following applies: reference: β1-WT tail peptide; sites T788,T789.
The target in data set [14] is kindlin-2 (UniProt Q8CIB5). The data set is described as follows: streptavidin-bead peptide pull-down, Western blot. The note with it: reference: β1-WT tail peptide; sites T788,T789.
The target of data set [15] is talin-1 head domain (THD) head domain (UniProt P26039). In words: streptavidin-bead peptide pull-down, Western blot. The following applies: reference: β1-WT tail peptide; sites T788,T789.
[16] abbreviates: densitometry, compared with β1-WT, mean ± SD, n = 5, SD.

No end group written: not given here.

Sequence of talin-1 head domain (THD) (P26039 whole entry, the tested form may be a part): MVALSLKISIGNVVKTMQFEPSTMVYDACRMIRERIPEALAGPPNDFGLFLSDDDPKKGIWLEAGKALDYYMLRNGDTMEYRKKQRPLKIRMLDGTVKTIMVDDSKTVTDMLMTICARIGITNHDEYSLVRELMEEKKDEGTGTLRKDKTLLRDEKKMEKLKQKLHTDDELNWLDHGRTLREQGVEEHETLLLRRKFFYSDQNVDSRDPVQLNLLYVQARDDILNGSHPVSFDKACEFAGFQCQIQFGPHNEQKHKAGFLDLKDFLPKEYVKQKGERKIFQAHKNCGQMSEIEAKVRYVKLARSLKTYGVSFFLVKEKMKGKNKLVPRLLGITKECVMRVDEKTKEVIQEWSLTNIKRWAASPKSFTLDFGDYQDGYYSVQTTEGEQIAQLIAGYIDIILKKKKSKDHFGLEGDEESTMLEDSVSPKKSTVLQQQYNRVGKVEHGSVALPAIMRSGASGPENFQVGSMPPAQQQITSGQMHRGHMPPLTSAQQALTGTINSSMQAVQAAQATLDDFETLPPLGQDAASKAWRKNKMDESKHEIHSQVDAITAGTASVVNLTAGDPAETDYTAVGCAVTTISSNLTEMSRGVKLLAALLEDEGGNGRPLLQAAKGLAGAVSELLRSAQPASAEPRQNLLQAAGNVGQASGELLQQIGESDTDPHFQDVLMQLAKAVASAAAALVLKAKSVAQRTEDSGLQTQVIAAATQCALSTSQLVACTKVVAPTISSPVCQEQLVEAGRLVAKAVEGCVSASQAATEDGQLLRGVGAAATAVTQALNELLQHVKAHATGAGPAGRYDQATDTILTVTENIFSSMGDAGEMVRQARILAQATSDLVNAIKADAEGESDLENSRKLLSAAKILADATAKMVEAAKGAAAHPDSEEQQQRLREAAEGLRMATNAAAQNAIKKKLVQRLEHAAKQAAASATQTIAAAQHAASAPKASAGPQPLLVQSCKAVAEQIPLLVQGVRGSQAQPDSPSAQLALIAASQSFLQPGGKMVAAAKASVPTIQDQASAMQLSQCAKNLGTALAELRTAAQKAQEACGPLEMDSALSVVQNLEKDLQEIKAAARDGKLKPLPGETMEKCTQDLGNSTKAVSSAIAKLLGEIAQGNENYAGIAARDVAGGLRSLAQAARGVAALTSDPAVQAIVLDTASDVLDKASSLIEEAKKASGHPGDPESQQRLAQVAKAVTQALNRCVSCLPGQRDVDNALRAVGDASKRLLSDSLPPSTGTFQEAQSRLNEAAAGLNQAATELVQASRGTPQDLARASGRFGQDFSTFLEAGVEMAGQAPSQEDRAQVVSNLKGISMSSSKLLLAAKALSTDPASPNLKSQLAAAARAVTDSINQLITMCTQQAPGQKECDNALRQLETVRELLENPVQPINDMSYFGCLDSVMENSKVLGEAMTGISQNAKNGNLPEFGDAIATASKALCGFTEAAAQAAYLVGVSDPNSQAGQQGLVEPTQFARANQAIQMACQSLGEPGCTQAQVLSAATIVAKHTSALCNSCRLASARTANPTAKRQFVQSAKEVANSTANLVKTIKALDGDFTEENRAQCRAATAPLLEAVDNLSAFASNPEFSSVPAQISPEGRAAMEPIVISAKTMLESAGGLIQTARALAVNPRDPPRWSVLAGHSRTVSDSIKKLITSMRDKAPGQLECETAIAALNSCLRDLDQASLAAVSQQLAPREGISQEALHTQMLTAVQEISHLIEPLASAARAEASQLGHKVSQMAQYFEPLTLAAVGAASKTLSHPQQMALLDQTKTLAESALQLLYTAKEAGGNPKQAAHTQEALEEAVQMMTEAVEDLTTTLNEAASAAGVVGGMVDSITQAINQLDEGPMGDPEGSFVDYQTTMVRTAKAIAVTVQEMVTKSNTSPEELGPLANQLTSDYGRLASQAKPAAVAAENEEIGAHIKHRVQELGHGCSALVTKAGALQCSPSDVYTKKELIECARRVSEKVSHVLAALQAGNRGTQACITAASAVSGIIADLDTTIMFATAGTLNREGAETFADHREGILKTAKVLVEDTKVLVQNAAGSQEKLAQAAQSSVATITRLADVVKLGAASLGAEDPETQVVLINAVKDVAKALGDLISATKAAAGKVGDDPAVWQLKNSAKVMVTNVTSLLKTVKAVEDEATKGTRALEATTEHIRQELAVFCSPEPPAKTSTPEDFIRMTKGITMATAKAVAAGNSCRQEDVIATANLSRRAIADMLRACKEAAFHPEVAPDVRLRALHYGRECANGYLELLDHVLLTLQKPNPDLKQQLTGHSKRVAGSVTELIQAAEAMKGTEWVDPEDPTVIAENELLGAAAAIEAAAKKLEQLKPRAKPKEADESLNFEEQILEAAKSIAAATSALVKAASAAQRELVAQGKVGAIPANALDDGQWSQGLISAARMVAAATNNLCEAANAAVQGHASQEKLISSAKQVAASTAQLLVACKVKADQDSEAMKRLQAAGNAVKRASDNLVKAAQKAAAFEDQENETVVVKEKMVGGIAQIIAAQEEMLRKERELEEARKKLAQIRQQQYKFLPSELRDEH

On to `CC[C@H](C)[C@H](NC(=O)[C@@H]1CCCN1C(=O)[C@H](CC(N)=O)NC(=O)[C@H](CCC(=O)O)NC(=O)CNC(=O)[C@@H](NC(=O)[C@H](CC(=O)O)NC(=O)[C@H](Cc1c[nH]c2ccccc12)NC(=O)[C@H](CCCCN)NC(=O)[C@H](C)NC(=O)[C@H](CC(N)=O)NC(=O)[C@H](CCSC)NC(=O)[C@H](CCCCN)NC(=O)[C@H](CCC(=O)O)NC(=O)[C@H](CCCCN)NC(=O)[C@H](CCC(=O)O)NC(=O)[C@H](Cc1ccccc1)NC(=O)[C@H](CCCCN)NC(=O)[C@H](C)NC(=O)[C@H](Cc1ccccc1)NC(=O)[C@H](CCC(=O)O)NC(=O)[C@H](CCCNC(=N)N)NC(=O)[C@H](CCCNC(=N)N)NC(=O)[C@H](CC(=O)O)NC(=O)[C@@H](N)Cc1c[nH]cn1)[C@@H](C)O)C(=O)N[C@@H](Cc1ccc(O)cc1)C(=O)N[C@@H](CCCCN)C(=O)N[C@@H](CO)C(=O)N[C@@H](C)C(=O)N[C@H](C(=O)N[C@H](C(=O)N[C@H](C(=O)N[C@H](C(=O)N[C@H](C(=O)N[C@@H](CC(N)=O)C(=O)N1CCC[C@H]1C(=O)N[C@@H](CCCCN)C(=O)N[C@@H](Cc1ccc(O)cc1)C(=O)N[C@@H](CCC(=O)O)C(=O)NCC(=O)N[C@@H](CCCCN)C(=O)O)C(C)C)C(C)C)[C@@H](C)O)[C@@H](C)O)C(C)C` [β1-WT], for which, in data set [1], the Kd (as a rule, the free concentration of one partner at which half of the binding sites on the other are occupied at equilibrium, for simple one-to-one binding) is 140 ± 20 µM.
As to `CC[C@H](C)[C@H](NC(=O)[C@@H]1CCCN1C(=O)[C@H](CC(N)=O)NC(=O)[C@H](CCC(=O)O)NC(=O)CNC(=O)[C@@H](NC(=O)[C@H](CC(=O)O)NC(=O)[C@H](Cc1c[nH]c2ccccc12)NC(=O)[C@H](CCCCN)NC(=O)[C@H](C)NC(=O)[C@H](CC(N)=O)NC(=O)[C@H](CCSC)NC(=O)[C@H](CCCCN)NC(=O)[C@H](CCC(=O)O)NC(=O)[C@H](CCCCN)NC(=O)[C@H](CCC(=O)O)NC(=O)[C@H](Cc1ccccc1)NC(=O)[C@H](CCCCN)NC(=O)[C@H](C)NC(=O)[C@H](Cc1ccccc1)NC(=O)[C@H](CCC(=O)O)NC(=O)[C@H](CCCNC(=N)N)NC(=O)[C@H](CCCNC(=N)N)NC(=O)[C@H](CC(=O)O)NC(=O)[C@@H](N)Cc1c[nH]cn1)[C@@H](C)O)C(=O)N[C@@H](Cc1ccc(O)cc1)C(=O)N[C@@H](CCCCN)C(=O)N[C@@H](CO)C(=O)N[C@@H](C)C(=O)N[C@H](C(=O)N[C@H](C(=O)N[C@H](C(=O)N[C@H](C(=O)N[C@H](C(=O)N[C@@H](CC(N)=O)C(=O)N1CCC[C@H]1C(=O)N[C@@H](CCCCN)C(=O)N[C@@H](Cc1ccc(O)cc1)C(=O)N[C@@H](CCC(=O)O)C(=O)NCC(=O)N[C@@H](CCCCN)C(=O)O)C(C)C)C(C)C)[C@@H](C)OP(=O)(O)O)[C@@H](C)OP(=O)(O)O)C(C)C` [β1-pTpT], the “affinity of kindlin-2 for the tail peptide (in words)” value in [2] (compared with β1-WT tails) is listed as “not measurable anymore”. The “pull-down of recombinant kindlin-2 (in words)” value in [3] is recorded as “not”. In [4] (setting [16]), the “SNX17 binding to the peptide, reduced to” value was 60 ± 11%. In addition, the “kindlin-2 binding to the peptide, reduced to” value in [5] (setting [16]) was found to be 27 ± 11%. Moreover, in [6], the “reduction of the peptide's phosphorylation after incubation in whole cell lysates” value is “around 40%”.
“EYEFEPDKVDTGAKGTKMAKNEKKFRNYTVHNIWESRKVAP-OH [scrambled, scrambled β1 integrin cytoplasmic tail peptide used as control, reference compound]”: the “SNX17 binding to the peptide (in words)” value in data set [4] (Western blot, n = 5) is listed as “lost”. The “kindlin-2 binding to the peptide (in words)” value in data set [5] (Western blot, n = 5) is recorded as “lost”.
Regarding “HDRREFAKFEKEKMNAKWDTGENPIYKSAVAAVVNPKYEGK [β1-TT/AA]”, the Kd in data set [1] was 100 ± 15 µM; in [2] (200 nM Atto488-labeled β1-tail peptide, 20 mM Tris pH 7.5, 200 mM NaCl, 1 mM TCEP, 0.05% Tween-20), 151 ± 1 µM.
“KWDTGENPIYKEAVpTpTFTVDFTFNKFNPKYEGK-OH [β3/β5-pTpT, chimeric β3/β5-pTpT peptide]”: the “binding of the anti-β1-pTpT antibody to the immobilized peptide (in words)” value in data set [7] and in data set [8] was “detected binding” each time.
As for “LLQEKGGYIPSGPIpTpTIHENEVVKSPSQPG-OH [Wwc2-pTpT, unrelated peptide with a bi-phosphorylated double-threonine motif derived from the cytosolic scaffolding protein Wwc2]”, the “binding of the anti-β1-pTpT antibody to the immobilized peptide (in words)” value in data set [7] and in data set [8] was “detected binding” throughout.
With “endogenous kindlin-2 (from UniProt Q8CIB5 1-680) (natural protein)”, in data set [9], the binding in percent of that to β1-WT (densitometry) amounted to 27%.
On to “β1 integrin (cytoplasmic tail, β1-tail) cytoplasmic tail (from UniProt P09055) β1-pTpT tail peptide”, for which the percent of reference in data set [10] amounted to 60%; in data set [11] it was 27%. Also, the “binding against the reference” value in data set [12] is “lost”; in data set [13], “same”; in [14], “lost”; in [15], “same”.

The values above are taken from paper PMC8761493, “New insights into the phosphorylation of the threonine motif of the β1 integrin cytoplasmic domain” (Life Science Alliance, 2022).
